From publication PMC6450568 (Bioorganic & medicinal chemistry letters, 2019)
Counter-ions that a name gives are not always drawn. Like-named read-outs stand apart in the source and are kept apart here.

What was measured:
[1] = target: T1, native MDH (malate dehydrogenase) reporter enzyme (Sus scrofa, UniProt P00346); experiment: Native MDH enzymatic reporter counter-screen; type: biochemical
T1 sequence (P00346 25-338): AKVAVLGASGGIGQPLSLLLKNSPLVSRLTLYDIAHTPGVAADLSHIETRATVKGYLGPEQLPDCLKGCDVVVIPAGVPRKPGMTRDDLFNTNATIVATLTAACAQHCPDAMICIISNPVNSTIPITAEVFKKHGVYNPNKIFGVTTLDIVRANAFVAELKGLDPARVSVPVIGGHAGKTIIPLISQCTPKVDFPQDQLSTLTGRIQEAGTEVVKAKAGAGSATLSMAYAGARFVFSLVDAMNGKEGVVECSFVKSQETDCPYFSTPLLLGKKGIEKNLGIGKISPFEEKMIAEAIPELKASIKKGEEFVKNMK

[2] = target: T2, native Rho (rhodanese) reporter enzyme (Bos taurus, UniProt P00586); experiment: Native Rho enzymatic reporter counter-screen; type: biochemical
T2 sequence (P00586 2-297 limits assumed): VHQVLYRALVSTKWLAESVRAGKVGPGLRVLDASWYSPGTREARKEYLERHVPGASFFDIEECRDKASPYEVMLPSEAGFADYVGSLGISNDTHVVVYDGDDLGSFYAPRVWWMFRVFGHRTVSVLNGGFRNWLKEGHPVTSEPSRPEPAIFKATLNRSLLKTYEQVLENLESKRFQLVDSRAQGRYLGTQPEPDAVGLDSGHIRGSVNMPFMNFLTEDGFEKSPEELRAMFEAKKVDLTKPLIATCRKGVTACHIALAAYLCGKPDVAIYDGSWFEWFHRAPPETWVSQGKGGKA

[3] = target: human HSP60/10 chaperonin system (Homo sapiens, UniProt P10809); experiment: HSP60/10-dMDH refolding assay; type: biochemical
human HSP60/10 chaperonin system, sequence (P10809 27-573): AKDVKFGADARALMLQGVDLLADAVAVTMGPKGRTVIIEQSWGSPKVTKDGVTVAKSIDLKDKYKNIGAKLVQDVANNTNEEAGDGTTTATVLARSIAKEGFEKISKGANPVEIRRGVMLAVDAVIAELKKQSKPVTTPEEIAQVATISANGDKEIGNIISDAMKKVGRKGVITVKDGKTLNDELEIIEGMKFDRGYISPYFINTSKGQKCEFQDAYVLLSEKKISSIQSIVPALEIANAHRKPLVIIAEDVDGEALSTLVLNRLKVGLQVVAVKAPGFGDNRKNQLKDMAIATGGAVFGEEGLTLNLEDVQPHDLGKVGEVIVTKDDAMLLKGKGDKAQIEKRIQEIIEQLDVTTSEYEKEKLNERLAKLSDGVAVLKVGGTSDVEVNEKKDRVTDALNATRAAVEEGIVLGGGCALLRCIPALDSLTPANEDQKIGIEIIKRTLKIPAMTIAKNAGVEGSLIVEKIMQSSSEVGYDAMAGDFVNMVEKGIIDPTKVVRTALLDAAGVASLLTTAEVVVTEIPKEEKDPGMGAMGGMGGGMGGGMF

[4] = target: GroEL ATPase (Escherichia coli, UniProt P0A6F5); experiment: biochemical
GroEL ATPase, sequence (P0A6F5 2-548): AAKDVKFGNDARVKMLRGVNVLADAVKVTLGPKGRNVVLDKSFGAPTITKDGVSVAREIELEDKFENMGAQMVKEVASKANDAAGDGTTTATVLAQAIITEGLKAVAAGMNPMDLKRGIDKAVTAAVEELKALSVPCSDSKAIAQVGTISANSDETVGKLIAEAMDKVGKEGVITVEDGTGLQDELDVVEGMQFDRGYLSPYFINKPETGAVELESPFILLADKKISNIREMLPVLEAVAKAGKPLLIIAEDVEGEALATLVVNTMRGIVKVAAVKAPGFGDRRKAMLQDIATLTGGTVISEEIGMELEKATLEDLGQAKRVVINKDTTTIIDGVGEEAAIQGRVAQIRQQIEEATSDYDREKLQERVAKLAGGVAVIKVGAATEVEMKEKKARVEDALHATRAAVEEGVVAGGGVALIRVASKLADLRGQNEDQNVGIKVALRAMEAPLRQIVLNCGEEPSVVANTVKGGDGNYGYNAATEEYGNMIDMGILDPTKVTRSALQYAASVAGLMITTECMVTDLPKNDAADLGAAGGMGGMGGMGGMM

[5] = target: E. coli GroEL (Escherichia coli, UniProt P0A6F5); experiment: Isothermal Titration Calorimetry of suramin binding to GroEL; settings: ITC, average of triplicate analyses
E. coli GroEL, sequence (P0A6F5 2-548): as above

[6] = target: T3, E. coli GroEL/ES chaperonin system (Escherichia coli, UniProt P0A6F5); experiment: biochemical
T3 sequence (P0A6F5 2-548): as above

[7] = target: T3, E. coli GroEL/ES chaperonin system; experiment: High-throughput screens of LOPAC and MicroSource Spectrum libraries; type: biochemical; settings: both GroEL/ES-dMDH and GroEL/ES-dRho screens, single concentration
[8] = target: T3, E. coli GroEL/ES chaperonin system; experiment: biochemical; remark: listed apart in the source
[9] = Biochemical Assay IC50, GroEL/ES-mediated refolding of dMDH, dose-response

| IC50 [1] [µM] | IC50 [2] [µM] | Compound | also measured |
| --- | --- | --- | --- |
| > 63 | > 100 | COc1ccc(-c2ccc3cc(C(=O)O)ccc3c2)cc1C12CC3CC(CC(C3)C1)C2 [Compound 3, Adapalene] |  |
| > 63 |  | COc1cc(/C=C/C(=O)CC(=O)/C=C/c2ccc(O)c(OC)c2)ccc1O [Compound 4, Curcumin] |  |
| > 63 | > 100 | C=C(CC)C(=O)c1ccc(OCC(=O)O)c(Cl)c1Cl [Compound 6, Ethacrynic acid] |  |
| > 63 | > 100 | CCCCCCCCCCCCCCCCC(C(=O)O)C(O)(CC(=O)O)C(=O)O (centres unmarked) [Compound 7, Agaric acid] |  |
|  | > 100 | O=C(O)C1=CC(=C(c2ccc(O)c(C(=O)O)c2)c2ccc(O)c(C(=O)O)c2)C=CC1=O [Compound 13, Aurintricarboxylic acid] |  |
| > 63 |  | CC1(C)CCC2=C(O1)c1ccccc1C(=O)C2=O [Compound 15, β-laphachone] |  |
| > 63 |  | CCCCCCCCCCCCCCCC(=O)OC[C@H](O)[C@H]1OC(=O)C(O)=C1O [Compound 20, L-Ascorbyl palmitate] |  |
| > 63 | > 100 | CCCCC/C=C\C/C=C\C/C=C\C/C=C\CCCC(=O)O [Compound 27, Arachidonic acid] |  |
|  | > 100 | Oc1c(Cl)cc(Cl)cc1Sc1cc(Cl)cc(Cl)c1O [Compound 29, Bithionol] |  |
| > 63 |  | CC1=CC(=O)c2ccccc2C1=O [Compound 30, Menadione] |  |
| > 63 | > 100 | COc1ccc(C(=O)/C=C/c2ccccc2)cc1 [Compound 35, 4’-Methoxychalcone] |  |
| > 63 |  | O=C1c2ccccc2C(=O)c2c(O)c(O)cc(O)c21 [Compound 37, Purpurin] |  |
| > 63 | > 100 | C[C@H](CCC(=O)O)[C@H]1CC[C@H]2[C@@H]3CC[C@@H]4C[C@H](O)CC[C@]4(C)[C@H]3CC[C@]12C [Compound 38, Lithocholic acid] |  |
| > 63 | > 100 | CCc1oc2ccccc2c1C(=O)c1cc(Br)c(O)c(Br)c1 [Compound 40, Benzbromarone] |  |
| > 63 | > 100 | O=C(/C=C/c1ccccc1)c1ccc(O)cc1 [Compound 44, 4’-Hydroxychalcone] |  |
| > 63 | > 100 | Oc1ccc(Cl)cc1Cc1cc(Cl)ccc1O [Compound 45, Dichlorophen] |  |
| > 63 |  | C=C1CC[C@H](O)C/C1=C/C=C1\CCC[C@]2(C)[C@@H]([C@H](C)/C=C/[C@H](C)C(C)C)CC[C@@H]12 [Compound 46, Calciferol (Vtamin D2)] |  |
| > 63 |  | Cc1cc2nc3c(=O)[nH]c(=O)nc-3n(C[C@H](O)[C@H](O)[C@H](O)COP(=O)(O)O)c2cc1C [Compound 50, Riboflavin-5-phosphate sodium salt] |  |
| > 63 | > 100 | CCOc1nc2cccc(C(=O)O)c2n1Cc1ccc(-c2ccccc2-c2nnn[nH]2)cc1 [Compound 56, Candesartan] |  |
| > 63 | > 100 | CCCCN1CCC(COC(=O)c2cc(Cl)c(N)c3c2OCCO3)CC1 [Compound 59, SB 204070] |  |

The remaining lines, values behind:

| Compound | IC50 [1] [µM] | IC50 [2] [µM] | also measured |
| --- | --- | --- | --- |
| C=CC1=C(C)c2cc3[nH]c(cc4nc(cc5[nH]c(cc1n2)c(C)c5CCC(=O)O)C(CCC(=O)O)=C4C)c(C)c3C=C [Compound 5, Protoporphyrin IX] | > 63 | > 100 |  |
| CCCCCCCCCCCCCCCC[N+](C)(C)C [Compound 11, Hexadecyltrimethylammonium bromide] | > 63 | > 100 |  |
| Cc1cc(C(C#N)c2ccc(Cl)cc2)c(Cl)cc1NC(=O)c1cc(I)cc(I)c1O (centres unmarked) [Compound 16, Closantel] |  | > 100 |  |
| O=c1c(O)c(-c2ccc(O)c(O)c2)oc2c(O)c(O)cc(O)c12 [Compound 18, Gossypetin] | > 63 |  |  |
| CC1=CC(=O)c2c(O)cccc2C1=O [Compound 21, Plumbagin] | > 63 |  |  |
| COc1cc(-c2ccc(/N=N/c3ccc4c(S(=O)(=O)O)cc(S(=O)(=O)O)c(N)c4c3O)c(OC)c2)ccc1/N=N/c1ccc2c(S(=O)(=O)O)cc(S(=O)(=O)O)c(N)c2c1O [Compound 22, Pontamine sky blue] | > 63 |  | IC50 [3]: 6.8 µM; IC50 [4]: > 250 µM |
| C=C(NC(=O)C(=C)NC(=O)c1csc(C2=N[C@@H]3c4csc(n4)[C@H]4NC(=O)c5csc(n5)[C@H]([C@](C)(O)[C@@H](C)O)NC(=O)[C@H]5CSC(=N5)/C(=C/C)NC(=O)[C@H]([C@@H](C)O)NC(=O)c5csc(n5)[C@]3(CC2)NC(=O)[C@H](C)NC(=O)C(=C)NC(=O)[C@H](C)NC(=O)[C@H]([C@@H](C)CC)N[C@@H]2C=Cc3c([C@H](C)O)cc(nc3[C@H]2O)C(=O)O[C@@H]4C)n1)C(N)=O [Compound 24, Thiostrepton] | > 63 | > 100 |  |
| Cc1ccc(C(=O)Nc2ccc(S(=O)(=O)O)c3cc(S(=O)(=O)O)cc(S(=O)(=O)O)c23)cc1NC(=O)c1cccc(NC(=O)Nc2cccc(C(=O)Nc3cc(C(=O)Nc4ccc(S(=O)(=O)O)c5cc(S(=O)(=O)O)cc(S(=O)(=O)O)c45)ccc3C)c2)c1 [Compound 28, Suramin] | > 63 | > 100 | Kd [5]: 21 µM; Log(Kd/μM) [5]: 1.31 ± 0.30; TΔS [5]: 4.15 ± 0.72 kcal/mol; ΔG [5]: -6.22 ± 0.41 kcal/mol; ΔH [5]: -2.07 ± 0.36 kcal/mol; ΔS [5]: 0.014 ± 0.002 kcal/mol·K; Stoichiometry n, Molecule : GroEL oligomer ([5]; per GroEL tetradecamer, listed as Suramin (28)): 9.4 ± 0.6; Stoichiometry n, Molecule : GroEL monomer ([5]; single-site binding model): 0.67 ± 0.05; IC50 ([6]; Assay IC50, GroEL/ES-dMDH Refolding, Table 1): 8.1 µM; IC50 [6, 9]: 8.1 µM; IC50 ([6]; IC50 values for inhibiting GroEL/ES refolding functions, approximate, dMDH and dRho refolding assays together): 10 to 15 µM; inhibition cutoff in primary and secondary high-throughput screens [7]: did not meet the 50% inhibition cutoff |
| CC[C@H](C)[C@H]1O[C@]2(C=C[C@@H]1C)C[C@@H]1C[C@@H](C/C=C(\C)[C@@H](O[C@H]3C[C@H](OC)[C@@H](O[C@H]4C[C@H](OC)[C@@H](O)[C@H](C)O4)[C@H](C)O3)[C@@H](C)/C=C/C=C3\CO[C@@H]4[C@H](O)C(C)=C[C@@H](C(=O)O1)[C@]34O)O2 [Compound 32, Abamectin (Avermectin b1a)] | > 63 | > 100 |  |
| CC[C@H](C)C1O[C@]2(C=C[C@@H]1C)C[C@@H]1C[C@@H](C/C=C(\C)[C@@H](O[C@H]3C[C@H](OC)[C@@H](O[C@H]4C[C@H](OC)[C@H](NC(C)=O)[C@H](C)O4)[C@H](C)O3)[C@@H](C)/C=C/C=C3\CO[C@@H]4[C@H](O)C(C)=C[C@@H](C(=O)O1)[C@]34O)O2 (some centres unmarked) [Compound 33, Eprinomectin] | > 63 | > 100 |  |
| CN(C)c1ccc(C(=C2C=CC(=[N+](C)C)C=C2)c2ccc(N(C)C)cc2)cc1 [Compound 34, Crystal violet] | > 63 |  |  |
| C=C1CC[C@H](O)C/C1=C/C=C1\CCC[C@]2(C)[C@@H]([C@H](C)CCCC(C)C)CC[C@@H]12 [Compound 41, Cholecalciferol (vtamin D3)] | > 63 | > 100 |  |
| O=C(/C=C/c1ccc(O)cc1)c1ccccc1 [Compound 43, 4-Hydroxychalcone] | > 63 | > 100 |  |
| CC(COc1ccccc1)N(CCCl)Cc1ccccc1 (centres unmarked) [Compound 47, Phenoxybenzamine HCl] | > 63 | > 100 |  |
| COc1cc(NC(C)CCCN)c2ncccc2c1 (centres unmarked) [Compound 49, Primiquine] | > 63 |  |  |
| CC[n+]1c(-c2ccccc2)c2cc(N)ccc2c2ccc(N)cc21 [Compound 51, Ethidium bromide] | > 63 |  |  |
| CC[C@H]1OC(=O)[C@H](C)[C@@H](O[C@H]2C[C@@](C)(OC)[C@@H](O)[C@H](C)O2)[C@H](C)[C@@H](O[C@@H]2O[C@H](C)C[C@H](N(C)C)[C@H]2O)[C@](C)(O)C[C@@H](C)C(=O)[C@H](C)[C@@H](O)[C@]1(C)O [Compound 55, (−)-Erythromycin] | > 63 | > 100 |  |
| CC(C)(C)NCC(O)c1ccc(O)c(CO)c1 (centres unmarked) [Compound 57, Albuterol] | > 63 | > 100 |  |
| CC(C)n1c(/C=C/C(O)CC(O)CC(=O)O)c(-c2ccc(F)cc2)c2ccccc21 (centres unmarked) [Compound 60, Fluvastatin sodium] | > 63 | > 100 | IC50 [3]: > 100 µM; IC50 [4]: > 250 µM; IC50 [6, 9]: > 100 µM; IC50 [8]: > 250 µM |
